According to US20110061129A1 (priority 2008, published 2011):

Legend:
[1] = tested on: Saccharomyces cerevisiae homozygous diploid YKO strains and parental strain BY4743; format: cell-based
[2] = tested on: mitochondrial translation in BY4743 and YKO strains; format: cell-based, Saccharomyces cerevisiae
[3] = tested on: Saccharomyces cerevisiae homozygous diploid YKO strains and parental strain BY4743; format: cell-based; remark: listed apart in the source
[4] = tested on: total translation in BY4743 and YKO strains; format: cell-based, Saccharomyces cerevisiae

With C/C=C\C(=O)O[C@@H]1C[C@H]2O[C@@H]3C=C(C)C(=O)C[C@]3(C)[C@]1(C)[C@]21CO1 [T-cin, trichothecin] the “effect of the 2 μM screening concentration on growth (parental strain)” value [1] was “non-lethal”, the “effect on mitochondrial translation” value [2] was “able to inhibit mitochondrial translation” and the “effect of the screening level of toxin on the parental strain” value [3] was “lethal”. For the same compound, the “inhibition of the cytosolic translation rate of BY4743” value [4] was 80-90%.
